3 compounds from publication PMC7659962, “Essential Oils from Monarda fistulosa: Chemical Composition and Activation of Transient Receptor Potential A1 (TRPA1) Channels” (Molecules, 2020) can be followed below.

Molecules are shown by their SMILES.

In the assay the target is T1, rTRPA1 (Rattus norvegicus, UniProt Q6RI86).
T1 construct: gene Trpa1
Briefly: Fura-2 calcium imaging in stably transfected HEK […] cells. Type of assay: cell-based. To be noted: 100 µM; agonist; HBSS pH […]; […] ratio change from baseline; blocked by HC-030031; nontransfected HEK cells as control.

T1 sequence (Q6RI86 whole entry): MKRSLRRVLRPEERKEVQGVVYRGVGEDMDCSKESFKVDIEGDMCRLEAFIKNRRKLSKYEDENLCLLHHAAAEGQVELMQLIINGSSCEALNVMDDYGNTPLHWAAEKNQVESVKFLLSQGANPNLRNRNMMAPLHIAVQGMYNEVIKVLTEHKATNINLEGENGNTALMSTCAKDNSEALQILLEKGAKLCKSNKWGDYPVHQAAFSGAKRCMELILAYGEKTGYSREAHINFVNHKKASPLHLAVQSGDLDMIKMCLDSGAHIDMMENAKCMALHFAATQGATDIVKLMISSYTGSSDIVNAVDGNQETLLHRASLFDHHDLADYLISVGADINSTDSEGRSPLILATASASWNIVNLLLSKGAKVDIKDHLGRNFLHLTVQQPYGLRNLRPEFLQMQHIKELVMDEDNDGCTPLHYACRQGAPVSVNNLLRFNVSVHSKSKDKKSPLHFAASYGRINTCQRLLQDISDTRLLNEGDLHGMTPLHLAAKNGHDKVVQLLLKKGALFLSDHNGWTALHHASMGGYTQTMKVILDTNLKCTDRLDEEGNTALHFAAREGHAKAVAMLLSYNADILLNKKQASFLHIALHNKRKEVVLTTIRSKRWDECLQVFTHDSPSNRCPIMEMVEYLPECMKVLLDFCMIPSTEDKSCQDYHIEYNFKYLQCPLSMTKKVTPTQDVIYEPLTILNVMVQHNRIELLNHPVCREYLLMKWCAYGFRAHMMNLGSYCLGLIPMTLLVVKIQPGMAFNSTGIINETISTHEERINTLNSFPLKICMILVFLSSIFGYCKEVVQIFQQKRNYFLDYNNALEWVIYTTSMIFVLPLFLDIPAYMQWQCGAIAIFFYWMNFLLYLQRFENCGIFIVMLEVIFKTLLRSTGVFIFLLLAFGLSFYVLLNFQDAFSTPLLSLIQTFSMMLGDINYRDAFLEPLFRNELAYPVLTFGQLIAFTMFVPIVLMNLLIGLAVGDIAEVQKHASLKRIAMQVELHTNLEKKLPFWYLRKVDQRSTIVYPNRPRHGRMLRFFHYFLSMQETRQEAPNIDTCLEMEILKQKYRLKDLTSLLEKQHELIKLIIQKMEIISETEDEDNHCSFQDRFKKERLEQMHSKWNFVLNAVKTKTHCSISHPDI

Regarding `C=CC(=C)CCC=C(C)C` [β-Myrcene], the “HEK Cells / rTRPA1 / [Ca^2+]i Change” value worked out at 0.111 ± 0.003.

Take `Cc1ccc(C(C)C)c(O)c1` [Thymol]: the “HEK Cells / rTRPA1 / [Ca^2+]i Change” value turned out to be 0.849 ± 0.013.

`Cc1ccc(C(C)C)cc1O` [Carvacrol]: the “HEK Cells / rTRPA1 / [Ca^2+]i Change” value is reported as 0.340 ± 0.012.
